Data from patent publication US7582611B2, “Motilide compounds” (Pfizer Inc., priority 2005, dated 2009).
Converted amounts (≈) assume the structure as drawn. Where two headings read alike, the source gives them in different places.

What was measured:
Motilin Receptor = target: T1, Motilin Receptor (Oryctolagus cuniculus, UniProt G1T803); assay: Tissue based assay for motilin agonist potency (rabbit duodenum contractility); type: cell-based
T1 construct: strips of longitudinal smooth muscle were sliced from the segments; from tissue; host or cells: rabbit duodenum longitudinal smooth muscle strips
Description: The motilin agonist potencies of compounds of this invention were evaluated using a tissue based assay, using rabbit duodenum tissue-based contractility assay, generally following the procedure of Depoortere et al., J. Gastrointestinal Motility, 1, 150-159 (1989), the disclosure of which is incorporated herein by reference. Briefly, this method measures the ability of a compound to induce contractions in rabbit duodenal tissue, a motilin receptor-bearing tissue contractilely responsive to motilin.
Strips of rabbit duodenum were tested and qualified for use in the assay by as follows. Segments of rabbit duodenum, 20-30 cm distal to the pylorus were split longitudinally. The mucosa was removed and 2×2×15 mm strips of longitudinal smooth muscle were sliced from the segments. The strips were bathed in oxygenated Krebs solution at 37° C., with 1.5 g of tension, and contractions measured auxotonically.
The carbachol was then washed away by changing the organ bath buffer twice. The strips were washed again 20±5 minutes following the carbachol contraction. Following this last wash a dose response study was initiated within 10±5 min. Each compound tested was dissolved in dimethylsulfoxide (DMSO) to a final concentration of 10 mM. A series of seven 10× serial dilutions in water was prepared, so that the concentration of the seventh serial dilution was 1.0×10^−6 mM. The first through fifth serial dilutions of the compound were applied, starting with 200 μL of the most dilute solution. After each application, there was a wait of 2±0.5 min, until the response was stable, before the application of the next dose (the next higher concentration serial dilution). The dose was increased in 10-fold increments until a small response was observed. Subsequent doses were the increased in 2- to 5-fold increments, until the maximum response was obtained. At 2±0.5 min after the last drug addition, the strips were dosed with 1 μM carbachol.
The EC50 (concentration producing a half-maximal effect) was calculated as follows. The basal tension was subtracted from the compound-induced tension for each reading. The data points were normalized against the response obtained from 1 μM carbachol at the end of the experiment. The concentration of compound was plotted against the response and fitted to the following equation: R=(Rmax·C)/(EC50+C) where R is the contraction response, Rmax is the maximal contraction response, and C is the concentration of compound. Both R and Rmax are expressed as a fraction of the 1 μM carbachol contraction and range from 0 to 1.

[1] = test system: Streptococcus pneumoniae ATCC 6301; assay: Evaluation of antibacterial activity (MIC, serial dilutions on 96-well microtiter plates); type: cell-based; details: ATCC6301, read-out: Antibacterial Activity (MIC, μg/mL)
[2] = rabbit duodenum strips, contraction normalized to 1 μM carbachol, read-out: Motilin Receptor Agonist Activity (EC50)

T1 sequence (G1T803 1-400): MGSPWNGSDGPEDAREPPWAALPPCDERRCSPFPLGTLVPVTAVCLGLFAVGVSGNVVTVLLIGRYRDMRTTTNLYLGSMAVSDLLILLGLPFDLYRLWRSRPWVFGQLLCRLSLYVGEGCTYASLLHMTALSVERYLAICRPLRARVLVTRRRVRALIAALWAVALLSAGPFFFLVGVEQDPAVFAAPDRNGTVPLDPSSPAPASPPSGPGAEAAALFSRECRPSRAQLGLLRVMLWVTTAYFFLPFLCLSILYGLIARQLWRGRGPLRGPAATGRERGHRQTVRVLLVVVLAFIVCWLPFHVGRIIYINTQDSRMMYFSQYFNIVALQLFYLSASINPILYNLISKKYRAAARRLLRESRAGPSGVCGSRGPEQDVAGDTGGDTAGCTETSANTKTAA

Row | EC50 (Motilin Receptor; [2]) [nM] | MIC [1] [µg/mL] | SMILES | EC50 (Motilin Receptor) [nM]
1 | 210 | 128 (≈ 141 µM) | CCCNC(=S)NCCO[C@@H]1[C@H](C)[C@@H](O)[C@](C)(O)[C@@H](CC)OC(=O)[C@H](C)[C@@H](O[C@H]2C[C@@](C)(OC)[C@@H](O)[C@H](C)O2)[C@H](C)[C@@H](O[C@@H]2O[C@H](C)C[C@H](N(C)C(C)C)[C@H]2O)[C@](C)(O)C[C@H]1C [Compound A-57] | 
2 | 37 | 128 (≈ 135 µM) | CC[C@H]1OC(=O)[C@H](C)[C@@H](O[C@H]2C[C@@](C)(OC)[C@@H](O)[C@H](C)O2)[C@H](C)[C@@H](O[C@@H]2O[C@H](C)C[C@H](N(C)C(C)C)[C@H]2O)[C@](C)(O)C[C@@H](C)[C@H](OCCNC(=O)c2ccc3[nH]cnc3c2)[C@H](C)[C@@H](O)[C@]1(C)O [Compound A-58] | 
3 | 79 | 128 (≈ 140 µM) | CC[C@H]1OC(=O)[C@H](C)[C@@H](O[C@H]2C[C@@](C)(OC)[C@@H](O)[C@H](C)O2)[C@H](C)[C@@H](O[C@@H]2O[C@H](C)C[C@H](N(C)C(C)C)[C@H]2O)[C@](C)(O)C[C@@H](C)[C@H](OCC(=O)NCc2ccccc2)[C@H](C)[C@@H](O)[C@]1(C)O [Compound A-59] | 
4 | 190 | 128 (≈ 154 µM) | CC[C@H]1OC(=O)[C@H](C)[C@@H](O[C@H]2C[C@@](C)(OC)C[C@H](C)O2)[C@H](C)[C@@H](O[C@@H]2O[C@H](C)C[C@H](N(C)C(C)C)[C@H]2O)[C@](C)(O)C[C@@H](C)[C@H](OCC(=O)N(C)C)[C@H](C)[C@@H](O)[C@]1(C)O [Compound A-60] | 
5 | 17 | 128 (≈ 156 µM) | CC[C@H]1OC(=O)[C@H](C)[C@@H](O[C@H]2C[C@@](C)(OC)C[C@H](C)O2)[C@H](C)[C@@H](O[C@@H]2O[C@H](C)C[C@H](N(C)C(C)C)[C@H]2O)[C@](C)(O)C[C@@H](C)[C@H](OCC(=O)NC)[C@H](C)[C@@H](O)[C@]1(C)O [Compound A-61] | 
6 | 63 | 128 (≈ 152 µM) | CC[C@H]1OC(=O)[C@H](C)[C@@H](O[C@H]2C[C@@](C)(OC)[C@@H](O)[C@H](C)O2)[C@H](C)[C@@H](O[C@@H]2O[C@H](C)C[C@H](N(C)C(C)C)[C@H]2O)[C@](C)(O)C[C@@H](C)[C@H](OCc2ncc[nH]2)[C@H](C)[C@@H](O)[C@]1(C)O [Compound A-62] | 
7 | 50 | 128 (≈ 146 µM) | CC[C@H]1OC(=O)[C@H](C)[C@@H](O[C@H]2C[C@@](C)(OC)[C@@H](O)[C@H](C)O2)[C@H](C)[C@@H](O[C@@H]2O[C@H](C)C[C@H](N(C)C(C)C)[C@H]2O)[C@](C)(O)C[C@@H](C)[C@H](OCC(=O)NCCOC)[C@H](C)[C@@H](O)[C@]1(C)O [Compound A-63] | 
8 | 100 | 64 (≈ 72.8 µM) | CCOC(=O)NCCO[C@@H]1[C@H](C)[C@@H](O)[C@](C)(O)[C@@H](CC)OC(=O)[C@H](C)[C@@H](O[C@H]2C[C@@](C)(OC)[C@@H](O)[C@H](C)O2)[C@H](C)[C@@H](O[C@@H]2O[C@H](C)C[C@H](N(C)C(C)C)[C@H]2O)[C@](C)(O)C[C@H]1C [Compound A-64] | 

The next lines start with the molecule.

Row | SMILES | EC50 (Motilin Receptor; [2]) [nM] | MIC [1] [µg/mL] | EC50 (Motilin Receptor) [nM]
9 | CC[C@H]1OC(=O)[C@H](C)[C@@H](O[C@H]2C[C@@](C)(OC)[C@@H](O)[C@H](C)O2)[C@H](C)[C@@H](O[C@@H]2O[C@H](C)C[C@H](N(C)C(C)C)[C@H]2O)[C@](C)(O)C[C@@H](C)[C@H](NS(=O)(=O)CC)[C@H](C)[C@@H](O)[C@]1(C)O [Compound A-40] | 350 | 128 (≈ 150 µM) | 
10 | CC[C@H]1OC(=O)[C@H](C)[C@@H](O[C@H]2C[C@@](C)(OC)[C@@H](O)[C@H](C)O2)[C@H](C)[C@@H](O[C@@H]2O[C@H](C)C[C@H](N(C)C(C)C)[C@H]2O)[C@](C)(O)C[C@@H](C)[C@H](NS(=O)(=O)C2CC2)[C@H](C)[C@@H](O)[C@]1(C)O [Compound A-41] | 170 | 128 (≈ 148 µM) | 
11 | CC[C@H]1OC(=O)[C@H](C)[C@@H](O[C@H]2C[C@@](C)(OC)[C@@H](O)[C@H](C)O2)[C@H](C)[C@@H](O[C@@H]2O[C@H](C)C[C@H](N(C)C3CCC3)[C@H]2O)[C@](C)(O)C[C@@H](C)[C@H](NS(=O)(=O)C2CC2)[C@H](C)[C@@H](O)[C@]1(C)O [Compound A-42] | 340 | > 128 | 
12 | CC[C@H]1OC(=O)[C@H](C)[C@@H](O[C@H]2C[C@@](C)(OC)[C@@H](O)[C@H](C)O2)[C@H](C)[C@@H](O[C@@H]2O[C@H](C)C[C@H](N(C)C(C)C)[C@H]2O)[C@](C)(O)C[C@@H](C)[C@H](NS(=O)(=O)C(F)(F)F)[C@H](C)[C@@H](O)[C@]1(C)O [Compound A-43] | 330 | 64 (≈ 71.5 µM) | 
13 | CC[C@H]1OC(=O)[C@H](C)[C@@H](O[C@H]2C[C@@](C)(OC)[C@@H](O)[C@H](C)O2)[C@H](C)[C@@H](O[C@@H]2O[C@H](C)C[C@H](N(C)C(C)C)[C@H]2O)[C@](C)(O)C[C@@H](C)[C@H](OCC(=O)NC2CCC2)[C@H](C)[C@@H](O)[C@]1(C)O [Compound A-45] | 28 | 128 (≈ 146 µM) | 
14 | CC[C@H]1OC(=O)[C@H](C)[C@@H](O[C@H]2C[C@@](C)(OC)[C@@H](O)[C@H](C)O2)[C@H](C)[C@@H](O[C@@H]2O[C@H](C)C[C@H](N(C)C(C)C)[C@H]2O)[C@](C)(O)C[C@@H](C)[C@H](OCC(=O)NC2CC2)[C@H](C)[C@@H](O)[C@]1(C)O [Compound A-46] | 31 | 128 (≈ 149 µM) | 
15 | CC[C@H]1OC(=O)[C@H](C)[C@@H](O[C@H]2C[C@@](C)(OC)[C@@H](O)[C@H](C)O2)[C@H](C)[C@@H](O[C@@H]2O[C@H](C)C[C@H](N(C)C(C)C)[C@H]2O)[C@](C)(O)C[C@@H](C)[C@H](OCC(=O)NCCN2CCOCC2)[C@H](C)[C@@H](O)[C@]1(C)O [Compound A-48] | 140 | 64 (≈ 68.5 µM) | 
16 | CC[C@H]1OC(=O)[C@H](C)[C@@H](O[C@H]2C[C@@](C)(OC)[C@@H](O)[C@H](C)O2)[C@H](C)[C@@H](O[C@@H]2O[C@H](C)C[C@H](N(C)C(C)C)[C@H]2O)[C@](C)(O)C[C@@H](C)[C@H](OCCF)[C@H](C)[C@@H](O)[C@]1(C)O [Compound A-49] |  | 128 (≈ 158 µM) | 140
17 | CC[C@H]1OC(=O)[C@H](C)[C@@H](O[C@H]2C[C@@](C)(OC)[C@@H](O)[C@H](C)O2)[C@H](C)[C@@H](O[C@@H]2O[C@H](C)C[C@H](N(C)C(C)C)[C@H]2O)[C@](C)(O)C[C@@H](C)[C@H](OCCCCCC(N)=O)[C@H](C)[C@@H](O)[C@]1(C)O [Compound A-50] | 170 | > 128 | 
18 | CC[C@H]1OC(=O)[C@H](C)[C@@H](O[C@H]2C[C@@](C)(OC)[C@@H](O)[C@H](C)O2)[C@H](C)[C@@H](O[C@@H]2O[C@H](C)C[C@H](N(C)C3CCC3)[C@H]2O)[C@](C)(O)C[C@@H](C)[C@H](OCC(=O)NC)[C@H](C)[C@@H](O)[C@]1(C)O [Compound A-51] | 510 | > 128 | 
19 | CC[C@H]1OC(=O)[C@H](C)[C@@H](O[C@H]2C[C@@](C)(OC)[C@@H](O)[C@H](C)O2)[C@H](C)[C@@H](O[C@@H]2O[C@H](C)C[C@H](N(C)C(C)C)[C@H]2O)[C@](C)(O)C[C@@H](C)[C@H](OCC(=O)NCC(F)(F)F)[C@H](C)[C@@H](O)[C@]1(C)O [Compound A-52] | 160 | 128 (≈ 142 µM) | 
20 | CC[C@H]1OC(=O)[C@H](C)[C@@H](O[C@H]2C[C@@](C)(OC)[C@@H](O)[C@H](C)O2)[C@H](C)[C@@H](O[C@@H]2O[C@H](C)C[C@H](N(C)C(C)C)[C@H]2O)[C@](C)(O)C[C@@H](C)[C@H](OCC(=O)NC(C)C)[C@H](C)[C@@H](O)[C@]1(C)O [Compound A-53] | 140 | 128 (≈ 148 µM) | 
21 | CCNC(=O)NCCO[C@@H]1[C@H](C)[C@@H](O)[C@](C)(O)[C@@H](CC)OC(=O)[C@H](C)[C@@H](O[C@H]2C[C@@](C)(OC)[C@@H](O)[C@H](C)O2)[C@H](C)[C@@H](O[C@@H]2O[C@H](C)C[C@H](N(C)C(C)C)[C@H]2O)[C@](C)(O)C[C@H]1C [Compound A-54] | 100 | > 128 | 
22 | CC[C@H]1OC(=O)[C@H](C)[C@@H](O[C@H]2C[C@@](C)(OC)[C@@H](O)[C@H](C)O2)[C@H](C)[C@@H](O[C@@H]2O[C@H](C)C[C@H](N(C)C(C)C)[C@H]2O)[C@](C)(O)C[C@@H](C)[C@H](OCc2nc[nH]n2)[C@H](C)[C@@H](O)[C@]1(C)O [Compound A-55] | 54 | > 128 | 
23 | CC[C@H]1OC(=O)[C@H](C)[C@@H](O[C@H]2C[C@@](C)(OC)[C@@H](O)[C@H](C)O2)[C@H](C)[C@@H](O[C@@H]2O[C@H](C)C[C@H](N(C)C(C)C)[C@H]2O)[C@](C)(O)C[C@@H](C)[C@H](OCC(=O)O)[C@H](C)[C@@H](O)[C@]1(C)O [Compound A-56] | 150 | 128 (≈ 156 µM) | 
